Drawing on patent publication US20240279236A1, “COMPOUNDS AND METHODS OF TREATING TUBERCULOSIS” (Fimbrion Therapeutics, Inc., priority 2021, published 2024), this text covers IC50 for 25 molecules.

The experiment deals with WT Mtb Erdman strain. The experiment is described as follows: Microplate Alamar Blue Assay (MABA), Mtb growth inhibition. The class given is cell-based, Mycobacterium tuberculosis. Conditions: Mycobacterium tuberculosis, ERDMAN, 168 h, Middlebrook 7H9 media, 7 days at 37° C. in 5% CO2.

Molecule `Cc1cc2c(NCCCc3ccc(-c4cc(F)c(Cl)c(F)c4)cc3)nc(-c3ccoc3)nc2s1` [Example 331, N-(3-(4′-chloro-3′,5′-difluoro-[1,1′-biphenyl]-4-yl)propyl)-2-(furan-3-yl)-6-methylthieno[2,3-d]pyrimidin-4-amine] showed a half-inhibitory concentration (IC50) of 30 nM.
Regarding `Cc1cc2c(NCCCc3ccc(-c4cnoc4)cc3)nc(-c3ccoc3)nc2s1` [Example 332, 2-(furan-3-yl)-6-methyl-N-(3-[4-(1,2-oxazol-4-yl)phenyl]propyl) thieno[2,3-d]pyrimidin-4-amine], the IC50 stood at 80 nM.
For `C#Cc1ccc(-c2ccc(CCCNc3nc(-c4ccoc4)nc4sc(C)cc34)cc2)cc1` [Example 333, N-(3-(4′-ethynyl-[1,1′-biphenyl]-4-yl)propyl)-2-(furan-3-yl)-6-methylthieno[2,3-d]pyrimidin-4-amine], the half-maximal inhibitory concentration (IC50) is 12 nM.
`Cc1cc2c(NCCCc3ccc(-c4ccsc4)cc3)nc(-c3ccoc3)nc2s1` [Example 334, 2-(furan-3-yl)-6-methyl-N-(3-[4-(thiophen-3-yl)phenyl]propyl) thieno[2,3-d]pyrimidin-4-amine] came in with an IC50 of 8 nM.
On to `Cc1ccc(-c2ccc(CCCNc3nc(-c4ccoc4)nc4sc(C)cc34)cc2)o1` [Example 335, 2-(furan-3-yl)-6-methyl-N-(3-[4-(5-methylfuran-2-yl)phenyl]propyl) thieno[2,3-d]pyrimidin-4-amine], for which the IC50 amounted to 87 nM. Compared with the last molecule, the IC50 is about 11-fold higher.
As for `Cc1ccc(-c2ccc(CCCNc3nc(-c4ccoc4)nc4sc(C)cc34)cc2)s1` [Example 336, 2-(furan-3-yl)-6-methyl-N-(3-[4-(5-methylthiophen-2-yl)phenyl]propyl)thieno[2,3-d]pyrimidin-4-amine], the figure is 15 nM.
`Cc1cc2c(NCCCc3ccc(-c4ccco4)cc3)nc(-c3ccoc3)nc2s1` [Example 337, N-(3-[4-(furan-2-yl)phenyl]propyl)-2-(furan-3-yl)-6-methylthieno[2,3-d]pyrimidin-4-amine]: 31 nM corresponded to half-maximal inhibition (IC50).
Take `Cc1cc2c(NCCCc3ccc(-c4ccoc4)cc3)nc(-c3ccoc3)nc2s1` [Example 338, 2-(furan-3-yl)-N-(3-[4-(furan-3-yl)phenyl]propyl)-6-methylthieno[2,3-d]pyrimidin-4-amine]: the IC50 amounted to 15 nM.
`Cc1cc2c(NCCCc3ccc(-c4ccc(C(F)(F)F)cc4)cc3)nc(-c3ccoc3)nc2s1` [Example 339, 2-(furan-3-yl)-6-methyl-N-(3-[4′-(trifluoromethyl)-[1,1′-biphenyl]-4-yl]propyl)thieno [2,3-d]pyrimidin-4-amine] registered an IC50 below 15 nM.
`Cc1cc2c(NCCCc3ccc(-c4cccc([N+](=O)[O-])c4)cc3)nc(-c3ccoc3)nc2s1` [Example 340, 2-(furan-3-yl)-6-methyl-N-(3-(3′-nitro-[1,1′-biphenyl]-4-yl)propyl)thieno [2,3-d]pyrimidin-4-amine] registered a half-inhibitory concentration (IC50) of 25 nM.
Regarding `Cc1cc2c(NCCCc3ccc(-c4ccc(C(C)(C)O)cc4)cc3)nc(-c3ccoc3)nc2s1` [Example 341, 2-[4′-(3-([2-(furan-3-yl)-6-methylthieno[2,3-d]pyrimidin-4-yl]amino)propy1)-[1,1′-biphenyl]-4-yl]propan-2-ol], half-maximal inhibition (IC50) was put at 140 nM.
As for `Cc1cc2c(NCCCc3ccc(-c4ccc5nonc5c4)cc3)nc(-c3ccoc3)nc2s1` [Example 343, N-(3-[4-(2,1,3-benzoxadiazol-5-yl)phenyl]propyl)-2-(furan-3-yl)-6-methylthieno[2,3-d]pyrimidin-4-amine], the figure is below 15 nM.
As for `Cc1cc2c(NCCCc3ccc(-c4cnc(F)c(C)c4)cc3)nc(-c3ccoc3)nc2s1` [Example 344, N-(3-[4-(6-fluoro-5-methylpyridin-3-yl)phenyl]propyl)-2-(furan-3-yl)-6-methylthieno[2,3-d]pyrimidin-4-amine], the figure is 74 nM.
Regarding `CCc1nc(NCCCc2ccc(-c3ccccn3)cc2)c2cc(C)sc2n1` [Example 368, 2-ethyl-6-methyl-N-(3-(4-(pyridin-2-yl)phenyl)propyl) thieno[2,3-d] pyrimidin-4-amine], the IC50 amounted to 210 nM.
As for `CCc1nc(NCCCc2ccc(-c3cnc(C(F)(F)F)cn3)cc2)c2cc(C)sc2n1` [Example 369, 2-ethyl-6-methyl-N-(3-(4-(5-(trifluoromethyl)pyrazin-2-yl)phenyl)propyl)thieno[2,3-d]pyrimidin-4-amine], half-maximal inhibition (IC50) was put at 21 nM.
With `CCc1nc(NCCCc2ccc(-c3ccc(C(F)(F)F)cn3)cc2)c2cc(C)sc2n1` [Example 370, 2-ethyl-6-methyl-N-(3-(4-(5-(trifluoromethyl)pyridin-2-yl)phenyl)propyl)thieno[2,3-d]pyrimidin-4-amine], the IC50 came to 25 nM.
With `CCc1nc(NCCCc2ccc(-c3cnccn3)cc2)c2cc(C)sc2n1` [Example 371, 2-ethyl-6-methyl-N-(3-(4-(pyrazin-2-yl)phenyl)propyl) thieno[2,3-d]pyrimidin-4-amine], the 50% inhibitory concentration (IC50) stood at 150 nM. Against the preceding molecule, the IC50 is about 6-fold higher.
As for `CCc1nc(NCCCc2ccc(-c3ncccn3)cc2)c2cc(C)sc2n1` [Example 372, 2-ethyl-6-methyl-N-(3-(4-(pyrimidin-2-yl)phenyl)propyl) thieno[2,3-d]pyrimidin-4-amine], the IC50 amounted to 250 nM.
As to `CCc1nc(NCCCc2ccc(-c3cccnn3)cc2)c2cc(C)sc2n1` [Example 373, 2-ethyl-6-methyl-N-(3-(4-(pyridazin-3-yl)phenyl)propyl) thieno[2,3-d] pyrimidin-4-amine], half-maximal inhibition (IC50) was put at 1000 nM. Compared with the last molecule, the IC50 is about 4-fold higher.
Then `CCc1nc(NCCCc2ccc(-c3ccc(OC(F)(F)F)cc3F)cc2)c2cc(C)sc2n1` [Example 374, 2-ethyl-N-(3-(2′-fluoro-4′-(tri-fluoromethoxy)-[1,1′-biphenyl]-4-yl)propyl)-6-methylthieno[2,3-d]pyrimidin-4-amine], with 30 nM; and `CCc1nc(NCCCc2ccc(-c3ccnnc3)cc2)c2cc(C)sc2n1` [Example 375, 2-ethyl-6-methyl-N-(3-(4-(pyridazin-4-yl)phenyl)propyl) thieno[2,3-d]pyrimidin-4-amine], with 860 nM; and `CCc1nc(NCCCc2ccc(-c3ccc(OC(F)(F)F)cn3)cc2)c2cc(C)sc2n1` [Example 376, 2-ethyl-6-methyl-N-(3-(4-(5-(trifluoro-methoxy)pyridin-2-yl)phenyl)propyl)thieno [2,3-d]pyrimidin-4-amine], with 55 nM.
In turn, `Cc1cc2c(NCCCc3ccc(-c4cnc(F)cn4)cc3)nc(-c3ccoc3)nc2s1` [Example 377, N-(3-[4-(5-fluoropyrazin-2-yl)phenyl]propyl)-2-(furan-3-yl)-6-methylthieno [2,3-d]pyrimidin-4-amine] came in with an IC50 of 8 nM. Against the preceding molecule, the IC50 is about 6.9-fold lower.
With `Cc1cc2c(NCCCc3ccc(-c4cnc(C5CC5)cn4)cc3)nc(-c3ccoc3)nc2s1` [Example 378, N-(3-[4-(5-cyclopropyl-pyrazin-2-yl)phenyl]propyl)-2-(furan-3-yl)-6-methylthieno[2,3-d]pyrimidin-4-amine], the IC50 was 63 nM.
As for `Cc1cc2c(NCCCc3ccc(-c4cnc(C(F)(F)F)cn4)cc3)nc(-c3ccoc3)nc2s1` [Example 379, 2-(furan-3-yl)-6-methyl-N-(3-(4-[5-(trifluoromethyl)pyrazin-2-yl]phenyl)propyl) thieno[2,3-d]pyrimidin-4-amine], the IC50 turned out to be 12 nM.
